The values below come from article PMC9181938, “Fluorinated Analogues of Lepidilines A and C: Synthesis and Screening of Their Anticancer and Antiviral Activity” (Molecules, 2022).

Where two headings read alike, the source gives them in different places.

A short description of series [1]: Cytotoxicity MTT assay (0.1–1000 µM), CC50. The following applies: Cercopithecus aethiops, Vero cells, read-out: CC50 Normal Cell Lines Vero. The class given is cell-based, Cercopithecus aethiops.
Series [2] has as its system Human herpesvirus 5 (HCMV). In words: Antiviral activity assay (0.1–1000 µM), IC50, plaque reduction. The following applies: Human betaherpesvirus 5, 20 PFU/well. Type of series: cell-based. The method, then:
(§1) Antiviral properties of compounds 1e–1g, 1e[PF6], 8a–8d, and 9a were assessed against five viruses: Human herpesvirus 1 (HSV-1, VR-539), Human parainfluenza virus type 3 (HPIV-3, VR-93), Human adenovirus 5 (AdV5, VR-5), Human herpesvirus 5 (HCMV, VR-977), and Encephalomyocarditis virus (EMCV, VR-1479). Viruses were purchased from the American Type Culture Collection (ATCC, Manassas, VA, USA).
(§2) All tested compounds were dissolved in DMSO (dimethyl sulfoxide, Sigma-Aldrich, Darmstadt, Germany) and then suspended in Minimum Essential Medium (MEM; Sigma-Aldrich, Darmstadt, Germany) supplemented with 2% heat-inactivated fetal bovine serum (FBS; Sigma-Aldrich, Darmstadt, Germany), 2 mM L-glutamine (Sigma-Aldrich, Darmstadt, Germany), and 100 units/mL penicillin G with […] streptomycin (Sigma-Aldrich, Darmstadt, Germany).
(§3) Investigated cells were propagated in Minimum Essential Medium (MEM; Sigma-Aldrich, Darmstadt, Germany) supplemented with 10% heat-inactivated fetal bovine serum (FBS; Sigma-Aldrich, Darmstadt, Germany) and 100 units/mL penicillin G with […] streptomycin (Sigma-Aldrich, Darmstadt, Germany). After reaching 80–90% confluency, cells were harvested with trypsin (Life Technologies, Warsaw, Poland) and seeded into 96-well microplates at 2 × 10^5 cells/mL after overnight incubation of cells at 37 °C in a humidified atmosphere containing 5% CO2.
(§4) The culture medium was removed from confluent cells grown in 96-well microplates, and the cells were inoculated with virus solutions in MEM supplemented with 2% FBS and antibiotics (HSV-1 MOI 0.005, 1000 virions/mL; HPIV-3 MOI 0.01, 2000 virions/mL; AdV5 MOI 0.005, 1000 virions/mL; EMCV 0.005, 1000 virions/mL; HCMV 20 PFU/well (plaque-forming units per well). After a 1-h (HSV-1, HPIV-3, AdV5, and EMCV) or 2-h adsorption period (HCMV), residual viral particles were removed, and infected cells were further incubated with MEM supplemented with 2% FBS containing compound concentrations in the range from 0.1 to 1000 µM [38]. All experiments were carried out in triplicate. The cell monolayers were incubated with the investigated compounds at 37 °C in a humidified atmosphere containing 5% CO2 until a cytopathic effect (CPE) was visible. Viral infection was evaluated by the MTT assay (as described previously) or plaque reduction assay. HCMV plaques were counted under an inverted microscope, Olympus IX73 (Olympus, Tokyo, Japan). Antiviral activity was expressed as the concentration required to reduce the number of viral plaques to 50% of the control (virus-infected but untreated).

Series [3] is described as follows: Cytotoxicity MTT assay (0.1–1000 µM), CC50. Type of series: cell-based, Macaca mulatta. The following applies: Macaca mulatta, LLC-MK2 cells, LLC-MK2, MTT, 48 h; read-out: CC50 Normal Cell Lines LLC-MK2.
The nature of series [4]: Cytotoxicity MTT assay (0.1–1000 µM), CC50. Type of series: cell-based, Human. Particulars: human, MRC-5 cells, MRC-5, MTT, read-out: CC50 Normal Cell Lines MRC-5.
A short description of series [5]: Cytotoxicity MTT assay (0.1–1000 µM), CC50. The class given is cell-based, Human. Particulars: human, A549 cells, read-out: CC50 Cancer Cell Lines A549.
The nature of series [6]: Cytotoxicity MTT assay (0.1–1000 µM), CC50. The class given is cell-based, Human. The following applies: human, HepG2 cells, read-out: CC50 Cancer Cell Lines HepG2.
Series [7] is described as follows: Cytotoxicity MTT assay (0.1–1000 µM), CC50. The class given is cell-based, Human. Particulars: human, HeLa cells.
Series [8] in a line: Cytotoxicity MTT assay (0.1–1000 µM), CC50. Type of series: cell-based, Mus musculus. Particulars: Mus musculus, NCTC clone 929 cells, NCTC clone 929, MTT, 48 h; read-out: CC50 Normal Cell Lines NCTC Clone 929.
Series [9] concerns Human adenovirus 5 (AdV5). Put plainly: Antiviral activity assay (0.1–1000 µM), IC50. The class given is cell-based. The following applies: Human mastadenovirus C. How it is done:
as §1, §2, §3, §4

The test system of series [10] is Human parainfluenza virus type 3 (HPIV-3). Put plainly: Antiviral activity assay (0.1–1000 µM), IC50. Type of series: cell-based. Particulars: Human respirovirus 3, HPIV-3, MOI 0.01; read-out: IC50 HPIV-3. The method, then:
as §1, §2, §3, §4

For series [11], the system named is Human herpesvirus 1 (HSV-1). In words: Antiviral activity assay (0.1–1000 µM), IC50. Type of series: cell-based. The following applies: Human alphaherpesvirus 1; HSV-1, MOI 0.005. How it is done: as §1, §2, §3, §4
For series [12], the system named is Encephalomyocarditis virus (EMCV). Put plainly: Antiviral activity assay (0.1–1000 µM), IC50. The class given is cell-based. Particulars: Cardiovirus A, MOI 0.005, read-out: IC50 EMCV. How it is done: as §1, §2, §3, §4
The test system of a further series is LLC-MK2 cells. In words: Cytotoxicity MTT assay (0.1–1000 µM), CC50. Type of series: cell-based, Macaca mulatta. Particulars: LLC-MK2, MTT, 48 h; read-out: CC50 Normal Cell Lines LLC-MK2.
A short description of series [13]: Cytotoxicity screening at 10 µM (MTT). The class given is cell-based, Cercopithecus aethiops. Particulars: Cercopithecus aethiops, Vero cells, read-out: Cell line (viability %) Vero.
Series [14] is described as follows: Cytotoxicity screening at 10 µM (MTT). Type of series: cell-based, Macaca mulatta. The following applies: Macaca mulatta, LLC-MK2 cells, read-out: Cell line (viability %) LLC-MK2.
Series [15] is described as follows: Cytotoxicity screening at 10 µM (MTT). Type of series: cell-based, Human. Particulars: human, MRC-5 cells, read-out: Cell line (viability %) MRC-5.
Series [16] concerns Human adenovirus 5 (AdV5). In words: Antiviral screening at 10 µM. The following applies: Human mastadenovirus C, AdV5-infected cells, read-out: Cell line (viability %) AdV5. Type of series: cell-based. The method, then:
(§5) Antiviral properties of compounds 1a, 1c, 1a[PF6], 1c[PF6], 9b[PF6], 9c[PF6], 10a–10d, 2a, and 2b were assessed against five viruses: Human herpesvirus 1 (HSV-1, VR-539), Human parainfluenza virus type 3 (HPIV-3, VR-93), Human adenovirus 5 (AdV5, VR-5), Human herpesvirus 5 (HCMV, VR-977), and Encephalomyocarditis virus (EMCV, VR-1479). Viruses were purchased from the American Type Culture Collection (ATCC, Manassas, VA, USA).
as §2
(§6) Vero, LLC-MK2, NCTC clone 929, MRC-5, and HeLa cells were propagated in Minimum Essential Medium (MEM; Sigma-Aldrich, Darmstadt, Germany) supplemented with 10% heat-inactivated fetal bovine serum (FBS; Sigma-Aldrich, Darmstadt, Germany) and 100 units/mL penicillin G with […] streptomycin (Sigma-Aldrich, Darmstadt, Germany). Upon reaching 80–90% confluency, cells were harvested with 0.25% trypsin in 1 mM EDTA (Life Technologies, Warsaw, Poland) and seeded onto 96-well microplates at 2 × 10^5 cells/mL. After overnight incubation of cells at 37 °C in a humidified atmosphere containing 5% CO2, the culture medium was removed, and cells were inoculated with the respective virus solution in MEM supplemented with 2% FBS and antibiotics (HSV-1 MOI 0.005, 1000 virions/mL; HPIV-3 MOI 0.01, 2000 virions/mL; AdV5 MOI 0.005, 1000 virions/mL, EMCV MOI 0.005, 1000 virions/mL, HCMV 20 PFU (plaque forming units) per well). After a 1-h (HSV-1, HPIV-3, AdV5, and EMCV) or 2-h adsorption period (HCMV), the residual virus was removed, and the infected cells were further incubated with a 100 μL freshly prepared solution of tested compounds diluted with a maintenance medium supplemented with 2% FBS to obtain compound concentrations of 10 µM. The final concentration of DMSO in the medium was 0.1%. All experiments were carried out in triplicate. The cells monolayers were incubated with the compounds at 37 °C in a humidified atmosphere containing 5% CO2 until the typical cytopathic effect (CPE) was visible. Viral infection was evaluated by the MTT assay or plaque reduction assay (HCMV). After incubation with drugs, the cells were treated with 3-(4,5-dimethylthiazol-2-yl)-2,5-diphenyltetrazolium bromide dye solution (MTT, Sigma-Aldrich, Darmstadt, Germany) (25 μL, 5 mg/mL) for 2 h and lysed with solvent solution (100 μL) containing: DMF (Sigma-Aldrich, Darmstadt, Germany) (45 mL), SDS (Sigma-Aldrich, Darmstadt, Germany) (13.5 g), and distilled water (55 mL). After overnight incubation at 37 °C, the optical density at 550 nm and a reference wavelength of 670 nm were measured on a microplate spectrophotometer, Varioskan Lux (Thermo Fisher Scientific, Waltham, MA, USA). The number of HCMV plaques was counted under an inverted microscope Olympus IX73 (Olympus, Tokyo, Japan).

Series [17] concerns Human parainfluenza virus type 3 (HPIV-3). In words: Antiviral screening at 10 µM. Type of series: cell-based. Particulars: Human respirovirus 3, antiviral screening, HPIV-3-infected cells, read-out: Cell line (viability %) HPIV-3. How it is done:
as §5, §2, §6

Series [18] has as its system Human herpesvirus 1 (HSV-1). Put plainly: Antiviral screening at 10 µM. Particulars: Human alphaherpesvirus 1, antiviral screening, HSV-1-infected cells, read-out: Cell line (viability %) HSV-1. Type of series: cell-based. The method, then: as §5, §2, §6
Series [19] has as its system Encephalomyocarditis virus (EMCV). Put plainly: Antiviral screening at 10 µM. The class given is cell-based. Particulars: Cardiovirus A, EMCV-infected cells, read-out: Cell line (viability %) EMCV. How it is done: as §5, §2, §6
Series [20] can be described thus: Cytotoxicity screening at 10 µM (MTT). The class given is cell-based, Human. The following applies: human, HeLa cells, read-out: Cell line (viability %) HeLa.
Series [21] deals with Human herpesvirus 5 (HCMV). In words: Antiviral screening at 10 µM, plaque reduction. The class given is cell-based. The following applies: Human betaherpesvirus 5, antiviral screening, HCMV-infected cells, read-out: Cell line (viability %) HCMV. How it is done: as §5, §2, §6
Series [22] is described as follows: Cytotoxicity screening at 10 µM (MTT). The following applies: Mus musculus, NCTC clone 929 cells, read-out: Cell line (viability %) NCTC clone 929. The class given is cell-based, Mus musculus.
The mark [23] stands for this setting: MTT, 48 h, read-out: CC50 Cancer Cell Lines HeLa.
[24] abbreviates: AdV5, MOI 0.005, read-out: IC50 AdV5.

The compound `Cc1c(C)[n+](OCc2ccccc2)cn1Cc1cccc(OC(F)(F)F)c1.[Br-]` [Compound 8b, 3-Benzyloxy-4,5-dimethyl-1-[3-(trifluoromethoxy)benzyl]imidazolium bromide] gave a melting point of 108 to 110 °C. Moreover, the CC50 at 48 h in series [1] came out at 143 ± 2.89 µM. Further, the IC50 in series [2] is over 24.3 µM. Further, the CC50 at 48 h in series [3] came out at 257 ± 6.77 µM. Moreover, the CC50 at 48 h in series [4] turned out to be 24.3 ± 2.08 µM. Moreover, in series [5], the 50% cytotoxic concentration (CC50) at 48 h turned out to be 5.5 ± 0.5 µM. The CC50 at 48 h in series [6] worked out at 163 ± 6.43 µM. Further, in series [7] (setting [23]), the CC50 at 48 h was 7.33 ± 0.76 µM. For the same compound, the CC50 at 48 h in series [8] was 90.7 ± 4.16 µM. In addition, in series [9] (setting [24]), the half-maximal inhibitory concentration (IC50) is over 7.33e-06 M. In addition, the IC50 in [10] was over 257 µM. Also, the IC50 in series [11] was over 143 µM. In addition, the IC50 in [12] was over 90.7 µM.

`FC(F)(F)c1cccc(C[n+]2cn(Cc3ccccc3)c(-c3ccccc3)c2-c2ccccc2)c1.[Br-]` [Compound 9a, 1-Benzyl-4,5-diphenyl-3-[3-(trifluoromethyl)benzyl]imidazolium bromide] had a melting point of 216 to 217 °C. In [2], this compound gave an IC50 of over 0.09 µM. In the series with LLC-MK2 cells, the CC50 worked out at 0.04 ± 0.002 µM. The cytotoxic concentration (CC50) at 48 h in [3] is 0.04 to 0.347 µM. The half-maximal cytotoxic concentration (CC50) at 48 h in [5] turned out to be 0.035 ± 0.005 µM. For the same compound, in [6], the CC50 at 48 h is 6.9 ± 0.361 µM. Besides, in series [7] (setting [23]), the half-maximal cytotoxic concentration (CC50) at 48 h is 0.019 ± 0.001 µM. In addition, the CC50 at 48 h in series [8] was determined as 3.75 ± 0.087 µM. Further, the IC50 in series [9] (setting [24]) is over 1.9e-08 M. In [10], the IC50 is over 0.04 µM. The IC50 in series [11] is over 0.347 µM. The IC50 in [12] was over 3.75 µM.

Take `COc1cccc(Cn2c(-c3ccccc3)c(-c3ccccc3)n(Cc3ccccc3)c2=S)c1` [Compound 10d]: the viability at 48 h, 10 µM in series [13] is 95.8%; in [14], 53.6%; in [15] it was 96.8%; in series [20] it was 74%; in series [22], 91.5%. Also, the CC50 at 48 h is under 400 µM in [7] (setting [23]) and 318 ± 47.5 µM in series [7] (Table S2, range 0.1-1000 µM, read-out: Cell line (CC50 M) HeLa). Moreover, the viability at 10 µM in series [16] was 68%; in [17], 10.6%; in series [18], 14.6%; in [19], 8.5%; in series [21], 1.9%. Moreover, the IC50 in series [9] (Table S4, range 0.1-1000 µM, AdV5, read-out: IC50 (M) AdV5) was over 0.000318 M.
